Values of other authors in patent US8644910B2, “Imaging protocols” (Biosensors International Group, Ltd., priority 2005, dated 2014).
Where two headings read alike, the source gives them in different places. Each block holds one compound with its values, some of them ahead of it.

How the values were obtained:
[1] = administration to lactating women
[2] = 600 MBq, common bone scan
[3] = not given; remark: listed apart in the source
[4] = stored at 15-25° C. before and after reconstitution
[5] = prepared product

- breast feeding interruption advised [1]: Complete cessation
Compound: O=C([O-])CC(O)(CC(=O)[O-])C(=O)[O-].[Ga+3] [^67Ga-citrate, Gallium Citrate]

- effective dose [2]: 3 mSv
Compound: O=P(O)(O)CP(=O)(O)O [^99mTc-MDP, medronate, metal not drawn]

Compound: [99Tc].[C-]#[N+]CC(C)(C)OC.[C-]#[N+]CC(C)(C)OC.[C-]#[N+]CC(C)(C)OC.[C-]#[N+]CC(C)(C)OC.[C-]#[N+]CC(C)(C)OC.[C-]#[N+]CC(C)(C)OC [^99mTc-Sestamibi, technetium-99m-methoxyisobutylisonitrile]
- Myocardial uptake (at exercise): 1.5 % of the injected dose
- Myocardial uptake (at rest): 1.2 % of the injected dose
- cleared through the feces ([3]; in 48 hours): approximately thirty-three
- excreted in the urine ([3]; in vivo): Twenty-seven
- major pathway for clearance ([3]; in vivo): hepatobiliary system
- metabolism ([3]; in vivo): excreted without any evidence of metabolism
- time for use after preparation [4]: ≤ 6 h

Compound: [Na+].[O]=[Tc](=[O])(=[O])[O-] [^99mTc-pertechnetate, Sodium pertechnetate]
- breast feeding interruption advised [1]: brief interruption (hours to days)

- breast feeding interruption advised [1]: brief interruption (hours to days)
Compound: N=C(N)NCc1cccc([131I])c1 [^123I-metaiodobenzylguanidine, metaiodobenzylguanidine]

Compound: [I-].[Na+] [^123I-sodium iodide, sodium iodide]
- breast feeding interruption advised [1]: Complete cessation

Compound: [Cl][201Tl] [^201Tl, Tl-201-thallous chloride]
- breast feeding interruption advised [1]: brief interruption (hours to days)

Compound: Technetium Tc 99m Arcitumomab (CEA-Scan)
- shelf life [5]: ≤ 4 h
